Data set [1] has as its system DR5 and p21 in HCT116/p53(+/+) cells. Put plainly: Western blot of p53 target genes DR5 and p21 in HCT116/p53(+/+) cells. The class given is cell-based, human. The settings on record: for expression of p53 targets DR5 and p21 proteins: parental HCT116 (p53+/+) cells, FIG. 2A. The protocol: (§1) FIGS. 2A-2B show protein levels of p53 target genes p21 and DR5 were induced by selected compounds in HCT/p53(+/+) cells (A) or HCT/p53(−/−) cells (B). In A, doses of compounds (μM) are listed above each lane. Cells treated with compounds were harvested and lysed for SDS-PAGE and immunoblotted with p21 or DR5 antibodies. Ran was used as a protein loading control. Doses of compounds in B were as follows: 2 μM for #15, 12 μM for #1 and #23, 20 μM for #20 and #32, 100 μM for #33, 200 μM for #5, #8, #12, #16, #17, and #22, and 400 μM for #3. The dose for adriamycin was 0.2 μg/ml. Cells were incubated for 16 hours at 37° C. with the various drugs prior to cell harvest;
(§2) Cells were collected and protein concentration was quantified by the Bio-Rad protein assay prior to SDS-PAGE. Proteins were transferred to a PVDF membrane (Immobilon-P, Millipore Corporation, Bedford, Mass.) by a semi-dry transfer apparatus (Bio-Rad Laboratories, Hercules, Calif.). The membranes with transferred proteins were blotted with 10% W/V non-fat dry milk and then incubated with the primary antibody and subsequently secondary antibodies, which were labelled by horseradish peroxidase, or infrared dyes (IR). Signals were visualized by either ECL (Amersham Pharmacia Biotech, England, UK) and exposed to an X-ray film, or scanned by the Odyssey Infared Imaging System (LI-COR Biosciences, Lincoln, Nebr.). Anti-p53, DO-1, was from Santa Cruz biotechnology, Inc. (Santa Cruz, Calif.), anti-p73 (AB-1) and anti-p21 (AB-1) were obtained from Calbiochem (San Diego, Calif.). Anti-ser20 of p53 Cell were obtained from Signaling Technology (Danvers, Mass.) and anti-DR5 antibody was obtained from Cayman Chemical (Ann Arbor, Mich.).
(§3) The chemical library screening was directed at restoring “p53 responses” in p53-deficient cells. The small molecules identified by the cell-based screening procedure appeared to be able to restore p53 responses in p53-deficient colon tumors and to eliminate viable cells. Their function was further tested on wild-type p53-expressing and p53-knockout HCT116 colon adenocarcinoma cell lines. A number of candidate modulators of signaling by the p53 family appeared to induce expression of p53 target genes such as p21 or DR5(13) either with or without stabilizing p53 protein in HCT116 cells (FIG. 2A).
Background: Immunoblotting shows a protein as a band on a membrane.

In data set [2] the test system is p53 protein expression in HCT116 cells. As to the kind of experiment: Western blot of p53 protein in parental HCT116 cells. It counts as cell-based, human. The settings on record: FIG. 2A. The protocol: as §2, §3
Data set [3] deals with p73 in HCT116/p53(−/−) cells. Put plainly: Western blot of p73 protein in HCT116/p53(-/-) cells. The class given is cell-based, human. The settings on record: FIG. 3F. How it is done:
(§4) FIGS. 3A-3F show: Structures (A) of isolated compounds and summary of their effects on the p53 family and transcriptional targets (B). Cell cycle profiles of HCT/p53(+/+) and HCT/p53(−/−) in response to treatment by selected compounds (C-E). The dose of #17 was 200 μM and for #23 it was 10 μM. F, p73 protein levels were elevated in HCT116/p53(−/−) cells in response to treatment by selected compounds at various concentrations as indicated;
as §2
The questioned whether the p53 family member p73 is involved in the p53-responsive transcriptional activity induced by the compounds identified was then tested. p63, the other p53 family member, was not tested, because the TA form of p63 is rarely expressed in malignant and normal tissues except for germ cells of the ovary and testis.

The test system of data set [4] is DR5 and p21 in HCT116/p53(−/−) cells. As to the kind of experiment: Western blot of p53 target genes DR5 and p21 in HCT116/p53(-/-) cells. The class given is cell-based, human. The settings on record: for DR5 and p21 expression (p53 target genes): p53-null HCT116 cells, 16 hours, doses per compound in FIG. 2B. How it is done: as §1, §2
A number of selected compounds was further tested on HCT116/p53^−/− cells to verify the possibility of induction of p53 target gene expression in the absence of p53. […] The importance of this observation is in establishing that it is possible to identify small molecules with the potential to induce p53 target gene expression in p53-deficient cells.

A further data set deals with γH2AX. Put plainly: γH2AX test (DNA damage signaling). It counts as cell-based. The settings on record: after treatment.
A further data set relates to HCT116/p53^+/+ cells. As to the kind of experiment: Flow cytometry cell cycle profile, HCT116/p53(+/+). The settings on record: #17 200 μM, #23 10 μM. It counts as cell-based, human. The protocol: as §4
(§5) Adherent cells in a 6-well plate were trypsinized and collected in 15 ml centrifuge tubes to which were added the originally floating cells. The collected cells were ethanol-fixed and stained with propidium iodide (Sigma, St. Louis, Mo.). The DNA content of the stained cells was then measured using an Epics Elite flow cytometer (Beckman-Coulter, Fullerton, Calif.).
(§6) The ability of selected compounds from the chemical library screen to induce apoptosis of human colon tumor cells and the dependence of their effects on endogenous p53 status was further evaluated.
For orientation: In flow cytometry, cells or beads pass a laser one at a time.

Data set [5] deals with HCT116/p53(−/−) xenografts. Put plainly: In vivo anti-tumor assay, HCT116/p53(-/-) xenografts in Balb/c nude mice. The settings on record: doses just below the MTD. The protocol: Balb/c nude mice were inoculated subcutaneously with 2 million HCT116/p53(−/−) cells in Matrigel on each flank. 6 mice were used in each group, in each of the two experiments. When the tumor mass reached about 3-5 mm, mice were treated with the compounds alone or following a single dose of TRAIL at 100 μg/mouse in experiment 1. At 7 days after treatment, mice were sacrificed and the tumor masses were weighted. The doses used were 100 mg/kg for #1, 50 mg/kg for #14, and 10 mg/kg for #23;
Balb/c nude mice (Charles River Laboratories, Wilmington, Mass.) were inoculated subcutaneously with 2 million HCT116/p53(−/−) cells in an equal volume of Matrigel. When tumor masses reached about 3-5 mm in diameter, mice were treated with the compounds alone by intraperitoneal injection or following a single intravenous dose of TRAIL at 100 μg/mouse. At 7 days after treatment, mice were sacrificed and the tumor masses were weighed. DLD1/PG13 cells were inoculated subcutaneously with 5 million cells. At 24 hours later mice were treated with selected compounds, and subsequently bioluminescence imaging was carried out after 16 hours as previously described [Wang, W. & El-Deiry, W. S. (2003) Cancer Biol Ther 2, 196-202].
(§7) Compounds #1, #14, #17, and #23 were tested in colon-tumor xenograft-bearing mice in order to evaluate their toxicities and potential anti-tumor effects (FIG. 4). […] The initial doses were chosen below maximal tolerated doses based on the NCI DTP toxicology databases for chemical compound testing in vivo so that mice would survive drug administration and allow subsequent evaluation of anti-tumor effects. p53-null HCT116 xenografts were first tested to document anti-tumor effects in p53-deficient tumors and an experiment to simulate therapy of established tumors was designed. A total of 2×10^6 p53-null HCT116 cells were implanted on opposite flanks subcutaneously in each of 6 nude mice in each group. When tumor masses grew to about 3-5 mm in diameter, drugs were administered intra-peritoneally (#1: 100 mg/kg; #14: 50 mg/kg; #23: 10 mg/kg), and on the next day additional groups received intravenous TRAIL (15) (100 μg/mice via the tail vein). Tumor weights were determined at 7 days later. […] Nonetheless in the future it may be possible to modify the structure of #17 or identify doses where synergistic interactions with TRAIL may be observed.

Data set [6] relates to HCT116/p53(+/+)/PG-13 cells. As to the kind of experiment: p53 transcriptional activity, PG13 reporter, HCT116/p53(+/+)/PG-13 cells. The settings on record: 16 h, bioluminescence. The class given is cell-based, human. How it is done:
(§8) Cells were treated by the indicated compounds at progressive 1:2 serial dilutions for 16 h, and the luciferase activities were detected by bioluminescence imaging. Fold induction was calculated by comparing to the nontreated cells;

A further data set deals with HCT116/p53^−/− cells. Put plainly: Flow cytometry cell cycle profile, HCT116/p53(-/-). The class given is cell-based, human. How it is done: as §4, §5, §6
Data set [7] is described as follows: Toxicity in xenograft-bearing mice. The class given is in vivo. The settings on record: at higher doses (above MTD). The protocol:
as §7

The subject of data set [8] is HCT116/p53(−/−)/PG13 cells. Put plainly: p53 transcriptional activity, PG13 reporter, HCT116/p53(-/-)/PG13 cells. It counts as cell-based, human. The settings on record: p53-null HCT116, 16 h, bioluminescence. The protocol:
as §8

Results on twelve compounds are retold here after US20160151403A1, “SMALL MOLECULE MODULATORS OF P53 FAMILY SIGNALING” (The Trustees of the University of Pennsylvania, priority 2006, published 2016).

“Also recorded” adds a separate entry of the source.

In the case of `Cc1ccc(CCCC(=O)O)cc1C` [#3], the “expression of p53 targets DR5 and p21 proteins” value in data set [1] was “increase p53 target gene expression”. Moreover, in data set [2], the p53 protein expression result is “slight or no significant effect”.
Turning to `O=C(O)/C=C\C(=O)Nc1ccc2c(c1)-c1ccccc1C2` [#5], in data set [1], the “expression of p53 targets DR5 and p21 proteins” value is on record as “increase p53 target gene expression”. For the same compound, the p53 protein expression result in data set [2] is on record as “slight or no significant effect”.
In the case of `O=C(O)CCC(=O)c1ccc2sc3ccccc3c2c1` [#8], the p73 protein expression entry in data set [3] was “induce p73 protein expression”. Also, in [4], the “DR5 and p21 expression (p53 target genes)” value (shortened to “DR5 and p21 expression”) was “increase DR5 and p21 expression”.
In the case of `COC1=C(C)C(=O)c2c(c(COC(N)=O)c3n2CC2C3N2C)C1=O` (stereo not shown) [#11], the “expression of p53 targets DR5 and p21 proteins” value in data set [1] is “more modest”. In addition, the p53 protein expression result in data set [2] is given as “increased p53 expression”.
For the compound `O=C(O)c1ccccc1-c1ccccc1C(=O)Nc1ccc2c(c1)[nH]c(=O)c1ccccc12` [#12], in data set [3], the p73 protein expression entry was “induce p73 protein expression”. Further, the “expression of p53 targets DR5 and p21 proteins” value in data set [1] is “increase p53 target gene expression”. The p53 protein expression result in data set [2] was “slight or no significant effect”.
For the compound `Cc1c2ccccc2c(CSC(=N)N)c2ccccc12.Cl` [#15], the “expression of p53 targets DR5 and p21 proteins” value in data set [1] is listed as “more modest”. The p53 protein expression entry in [2] was “increased p53 expression; also recorded: significantly increased p53 protein levels”.
For `CC(C)=CCNc1ncnc2c1c(C#N)cn2C1OC(CO)C(O)C1O` (stereo not shown) [#16], the p73 protein expression entry in data set [3] is on record as “induce p73 protein expression”. For the same compound, the “expression of p53 targets DR5 and p21 proteins” value in data set [1] is on record as “increase p53 target gene expression”. Further, the p53 protein expression result in data set [2] was “slight or no significant effect”.
With `CN(C)CCCn1c2ccccc2c2cnccc21` [#17], in data set [3], the p73 protein expression result is “did not increase p73 expression”. In addition, the γH2AX entry in the data set with γH2AX is “not”. For the same compound, the “sub-G1 peak (apoptosis)” value is listed as “induced a sub-G1 peak characteristic of apoptosis” in the data set on HCT116/p53^+/+ cells and “induced a sub-G1 peak characteristic of apoptosis” in the data set with HCT116/p53^−/− cells (HCT116/p53^−/−, #17 200 μM, #23 10 μM). Further, in data set [5], the “anti-tumor effect on established xenograft” value was “no apparent in vivo anti-tumor effect”. The p53 transcriptional activity entry in [6] was “highest”. Further, the DR5 levels entry in data set [1] (HCT116/p53^+/+ cells) is listed as “highest”. Further, the “expression of p53 targets DR5 and p21 proteins” value in data set [1] is recorded as “increase p53 target gene expression”. Also, the “S-phase population on apoptosis induction” value in the data set on HCT116/p53^−/− cells (p53-null HCT116 cells, compared with wild-type p53-expressing HCT116) is given as “without suppressing the S-phase population”. Besides, in data set [7], the toxicity to mice entry is “toxic to mice”. Besides, the “p53 transcriptional activity (reporter assay response)” value in data set [8] is “highest; also recorded: stronger responses in the reporter assays”. Moreover, in [4] (HCT116/p53^−/− cells), the DR5 expression result is given as “highest”. Also, the “DR5 and p21 expression” value in data set [4] was “increasing expression of the p53 target genes DR5 and p21; also recorded: strongly induce p53 target gene expression”. Besides, the p53 protein expression result in data set [2] is recorded as “slight or no significant effect; also recorded: modestly induced p53 levels”.
In the case of `O=c1[nH]c(SCc2ccccc2[N+](=O)[O-])nc2nc[nH]c12` [#22], the “DR5 and p21 expression” value in data set [4] is “increase DR5 and p21 expression”.
The same measure, in the same setting: the result for `C[C@]12CC[C@H](O)C[C@H]1CC[C@@H]1[C@@H]2CC[C@]2(C)[C@@H](C3=CC(=O)OC3)[C@@H](O)C[C@]12O` [#32] reads “increase DR5 and p21 expression”.
`CC[C@@]1(O)C(=O)OCc2c1cc1n(c2=O)Cc2cc3c(NC(=O)CN)cccc3nc2-1.Cl` [#33]: the “expression of p53 targets DR5 and p21 proteins” value in [1] was “increased expression of DR5 and p21 proteins”. Also, in [2], the p53 protein expression entry is given as “increase p53 expression; also recorded: significantly increased p53 protein levels”.
For the compound `COc1cccc2c1C(=O)c1c(O)c3c(c(O)c1C2=O)C[C@@](O)(C(=O)CO)C[C@@H]3O[C@H]1C[C@H](N)[C@H](O)[C@H](C)O1` [adriamycin, doxorubicin, reference compound], in data set [3], the p73 protein expression result was “only increased p73 slightly”. In data set [4] (HCT116/p53^−/− cells), the DR5 expression entry is recorded as “no obvious effect” and the p21 expression result was “little effect”.
